Test system: Sprague-Dawley rats
Conditions: rat, in vivo

Compound | activity on mechanical allodynia (von Frey), days 14 and 21 | OXA-induced pain threshold decrease (von Frey), day 7, 30 min
CC(C)C[C@H](CN)CC(=O)O [Pregabalin, pregabalin] | active | –
GCCSDPRCRYRCR [RgIA] | – | reverted

— patent publication US10633417B2 (priority 2013, dated 2020)
